One test has as its target T1, PcaK (Pseudomonas putida, UniProt Q51955).
T1 sequence (Q51955 1-448): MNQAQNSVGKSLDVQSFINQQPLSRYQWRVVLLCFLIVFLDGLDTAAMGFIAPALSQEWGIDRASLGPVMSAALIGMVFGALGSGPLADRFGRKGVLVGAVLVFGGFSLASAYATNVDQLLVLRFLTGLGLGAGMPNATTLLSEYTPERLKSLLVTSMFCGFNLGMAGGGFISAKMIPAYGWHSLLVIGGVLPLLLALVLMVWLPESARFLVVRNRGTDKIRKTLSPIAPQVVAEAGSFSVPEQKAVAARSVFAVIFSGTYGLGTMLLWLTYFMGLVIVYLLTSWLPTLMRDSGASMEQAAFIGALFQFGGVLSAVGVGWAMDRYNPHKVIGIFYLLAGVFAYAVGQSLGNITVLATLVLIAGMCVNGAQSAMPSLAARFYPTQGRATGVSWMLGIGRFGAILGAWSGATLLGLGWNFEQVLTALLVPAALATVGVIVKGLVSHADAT
The test can be described thus: radiolabelled uptake into E. coli cells. The format is cell-based. Conditions: 50 μM 4-HB; whole E. coli cells; labelled compound.

The next test has as its target S. pombe Hem25p (Schizosaccharomyces pombe, UniProt Q9P6N6). To be noted: whole E. coli cells; labelled compound.

The values that follow come from paper PMC10759932 (Nature cell biology, 2023).

Structures are written as SMILES.

S. pombe Hem25p, sequence (Q9P6N6 whole entry): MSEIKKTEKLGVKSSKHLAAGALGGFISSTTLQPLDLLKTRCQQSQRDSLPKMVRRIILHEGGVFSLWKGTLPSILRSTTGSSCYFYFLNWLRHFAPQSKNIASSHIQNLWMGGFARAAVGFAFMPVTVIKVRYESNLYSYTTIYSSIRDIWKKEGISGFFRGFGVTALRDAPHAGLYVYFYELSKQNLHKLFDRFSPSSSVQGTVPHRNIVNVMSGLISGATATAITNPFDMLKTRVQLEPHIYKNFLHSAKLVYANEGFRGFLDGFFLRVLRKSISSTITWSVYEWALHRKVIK

As for `O=C(O)c1ccc(O)cc1` [4-HB], at PcaK, the “radiolabelled uptake into E. coli cells” value is “Uptake of 4-HB was only seen when the known bacterial 4-HB transporter PcaK was expressed”.
Turning to `C=C(C)CCOP(=O)(O)OP(=O)(O)O` [IPP], the “radiolabelled uptake into E. coli cells” value at S. pombe Hem25p was “Hem25p from S. pombe and S. cerevisiae”.
